# Results taken from patent US11084800B2 (Achillion Pharmaceuticals, Inc., priority 2017, dated 2021).
# Molecular target: Human Factor D (Homo sapiens (Human), UniProt P00746)
# Assay: Human Factor D Assay
# Assay type: biochemical
# Settings: Factor D inhibition, assay of Example 10; read-out: IC5 (Stars)
# How it was run: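 Thioester substrate Z-L-Lys-SBz (100 μM) with Ellman's reagent DTNB (100 μM) reports activity of 80 nM human serum-derived enzyme, kinetically at 405 nm over 30 min. Compound preincubated 5 min, room temperature, pH 7.5 Tris/1 M NaCl; IC50 by nonlinear fit of rates.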
# Sequence of Human Factor D (P00746 26-253): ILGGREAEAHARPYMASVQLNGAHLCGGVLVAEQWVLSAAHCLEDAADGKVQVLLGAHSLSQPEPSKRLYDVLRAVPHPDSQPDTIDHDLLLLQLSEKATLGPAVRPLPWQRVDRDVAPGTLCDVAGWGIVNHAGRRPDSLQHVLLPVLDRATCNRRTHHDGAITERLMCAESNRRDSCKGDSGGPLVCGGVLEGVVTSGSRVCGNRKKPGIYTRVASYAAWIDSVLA
row,Compound,IC50 [µM]
1,"CC(=O)c1nn(CC(=O)N2[C@H](C(=O)Nc3nc(Br)ccc3C)C[C@@]3(C)C[C@@H]23)c2c(C(F)CF)cc(-c3cnc(C)nc3)cc12 (stereo partly drawn) [Compound 237, (1R,3S,5R)-2-(2-(3-acetyl-7-(1,2-difluoroethyl)-5-(2-methylpyrimidin-5-yl)-1H-indazol-1-yl)acetyl)-N-(6-bromo-3-methylpyridin-2-yl)-5-methyl-2-azabicyclo[3.1.0]hexane-3-carboxamide]",< 1
2,"CC(=O)c1nn(CC(=O)N2[C@H](C(=O)Nc3nc(Br)ccc3C)C[C@@]3(C)C[C@@H]23)c2c(C(O)CF)cc(-c3cnc(C)nc3)cc12 (stereo partly drawn) [Compound 238, (1R,3S,5R)-2-(2-(3-acetyl-7-(2-fluoro-1-hydroxyethyl)-5-(2-methylpyrimidin-5-yl)-1H-indazol-1-yl)acetyl)-N-(6-bromo-3-methylpyridin-2-yl)-5-methyl-2-azabicyclo[3.1.0]hexane-3-carboxamide]",< 1

# Same assay, conditions: Table 6; Factor D 80 nM, substrate Z-L-Lys-SBz; read-out: IC50
row,Compound,IC50 [µM]
1,"COc1ncc(-c2cc3c(C(C)=O)nn(CC(=O)N4[C@H](C(=O)Nc5nc(Br)c(F)cc5C)C[C@@]5(C)C[C@@H]45)c3cn2)cn1 [Compound 198, (1R,3S,5R)-2-(2-(3-Acetyl-5-(2-methoxypyrimidin-5-yl)-1H-pyrazolo[3,4-c]pyridin-1-yl)acetyl)-N-(6-bromo-5-fluoro-3-methylpyridin-2-yl)-5-methyl-2-azabicyclo[3.1.0]hexane-3-carboxamide]",< 1
2,"CC(=O)c1nn(CC(=O)N2[C@H](C(=O)Nc3nc(Br)ccc3C)C[C@@]3(Cn4cc(C5CC5)nn4)C[C@@H]23)c2ccc(-c3cnc(C)nc3)cc12 [Compound 201, (1R,3S,5R)-2-(2-(3-acetyl-5-(2-methylpyrimidin-5-yl)-1H-indazol-1-yl)acetyl)-N-(6-bromo-3-methylpyridin-2-yl)-5-((4-cyclopropyl-1H-1,2,3-triazol-1-yl)methyl)-2-azabicyclo[3.1.0]hexane-3-carboxamide]",< 1
3,"CC(=O)c1nn(CC(=O)N2[C@H](C(=O)Nc3nc(Br)ccc3C)C[C@@]3(Cn4cc([Si](C)(C)C)nn4)C[C@@H]23)c2ccc(-c3cnc(C)nc3)cc12 [Compound 202, (1R,3S,5R)-2-(2-(3-acetyl-5-(2-methylpyrimidin-5-yl)-1H-indazol-1-yl)acetyl)-N-(6-bromo-3-methylpyridin-2-yl)-5-((4-(trimethylsilyl)-1H-1,2,3-triazol-1-yl)methyl)-2-azabicyclo[3.1.0]hexane-3-carboxamide]",< 1
4,"CC(=O)c1nn(CC(=O)N2[C@H](C(=O)Nc3nc(Br)ccc3C)C[C@@]3(Cn4ccnn4)C[C@@H]23)c2ccc(-c3cnc(C)nc3)cc12 [Compound 203, (1R,3S,5R)-5-((1H-1,2,3-triazol-1-yl)methyl)-2-(2-(3-acetyl-5-(2-methylpyrimidin-5-yl)-1H-indazol-1-yl)acetyl)-N-(6-bromo-3-methylpyridin-2-yl)-2-azabicyclo[3.1.0]hexane-3-carboxamide]",< 1
5,CC(=O)c1nn(CC(=O)N2[C@H](C(=O)Nc3nc(Br)ccc3CN3CC4(COC4)C3)C[C@@]3(C)C[C@@H]23)c2ccc(-c3cnc(C)nc3)cc12 [Compound 204],< 1
6,"CC(=O)c1nn(CC(=O)N2[C@H](C(=O)Nc3nc(Br)ccc3C)C[C@@]3(C)C[C@@H]23)c2c(C)cc(-c3cnc(OC4COC4)nc3)cc12 [Compound 208, (1R,3S,5R)-2-(2-(3-acetyl-7-methyl-5-(2-(oxetan-3-yloxy)pyrimidin-5-yl)-1H-indazol-1-yl)acetyl)-N-(6-bromo-3-methylpyridin-2-yl)-5-methyl-2-azabicyclo[3.1.0]hexane-3-carboxamide]",< 1
7,"NC(=O)c1cc(-c2cccnc2)n(CC(=O)N2C[C@H](F)C[C@H]2C(=O)Nc2cccc(Br)n2)n1 [Compound 211, 1-(2-((2S,4R)-2-((6-Bromopyridin-2-yl)carbamoyl)-4-fluoropyrrolidin-1-yl)-2-oxoethyl)-5-(pyridin-3-yl)-1H-pyrazole-3-carboxamide]",< 1
8,"Cc1ncc(-c2cc(C(N)=O)nn2CC(=O)N2C[C@H](F)C[C@H]2C(=O)Nc2cccc(Br)n2)cn1 [Compound 215, 1-(2-((2S,4R)-2-((6-Bromopyridin-2-yl)carbamoyl)-4-fluoropyrrolidin-1-yl)-2-oxoethyl)-5-(2-methylpyrimidin-5-yl)-1H-pyrazole-3-carboxamide]",> 10

# Continued, values first:
row,IC50 [µM],Compound
1,< 1,"CC(=O)c1nn(CC(=O)N2[C@H](C(=O)Nc3nc(Br)ccc3C)C[C@@]3(C)C[C@@H]23)c2cnc(-c3cnc(C)[n+]([O-])c3)cc12 [Compound 200, 5-(3-acetyl-1-(2-((1R,3S,5R)-3-((6-bromo-3-methylpyridin-2-yl)carbamoyl)-5-methyl-2-azabicyclo[3.1.0]hexan-2-yl)-2-oxoethyl)-1H-pyrazolo[3,4-c]pyridin-5-yl)-2-methylpyrimidine 1-oxide]"
2,< 1,"CC(=O)c1nn(CC(=O)N2[C@H](C(=O)Nc3nc(Br)ccc3C)C[C@@]3(C)C[C@@H]23)c2c(C)nc(-c3cnc(C)nc3)cc12 [Compound 205, (1R,3S,5R)-2-(2-(3-acetyl-7-methyl-5-(2-methylpyrimidin-5-yl)-1H-pyrazolo[3,4-c]pyridin-1-yl)acetyl)-N-(6-bromo-3-methylpyridin-2-yl)-5-methyl-2-azabicyclo[3.1.0]hexane-3-carboxamide]"
3,< 1,"CC(=O)c1nn(CC(=O)N2[C@H]3C[C@@]3(CN3C[C@H]4CCC[C@H]4C3)C[C@H]2C(=O)Nc2nc(Br)ccc2C)c2cnc(-c3cnc(C)nc3)cc12 [Compound 206, (1S,3S,5S)-2-(2-(3-acetyl-5-(2-methylpyrimidin-5-yl)-1H-pyrazolo[3,4-c]pyridin-1-yl)acetyl)-N-(6-bromo-3-methylpyridin-2-yl)-S-(((3aR,6a5)-hexahydrocyclopenta[c]pyrrol-2(1H)-yl)methyl)-2-azabicyclo[3.1.0]hexane-3-carboxamide]"
4,< 1,"CC(=O)c1nn(CC(=O)N2[C@H]3C[C@@]3(CN3CC4(CCCC4)C3)C[C@H]2C(=O)Nc2nc(Br)ccc2C)c2cnc(-c3cnc(C)nc3)cc12 [Compound 207, (1S,3S,5S)-5-((2-azaspiro[3.4]octan-2-yl)methyl)-2-(2-(3-acetyl-5-(2-methylpyrimidin-5-yl)-1H-pyrazolo[3,4-c]pyridin-1-yl)acetyl)-N-(6-bromo-3-methylpyridin-2-yl)-2-]"
5,< 1,"CC(=O)c1nn(CC(=O)N2[C@H](C(=O)Nc3nc(Br)c(F)cc3C)C[C@@]3(C)C[C@@H]23)c2c(C)nc(-c3cnc(C)nc3)cc12 [Compound 209, (1R,3S,5R)-2-(2-(3-acetyl-7-methyl-5-(2-methylpyrimidin-5-yl)-1H-pyrazolo[3,4-c]pyridin-1-yl)acetyl)-N-(6-bromo-5-fluoro-3-methylpyridin-2-yl)-5-methyl-2-azabicyclo[3.1.0]hexane-3-carboxamide]"
6,> 10,"CC(=O)c1nn(CC(=O)N2[C@H](C(=O)Nc3nc(Br)ccc3C)C[C@@]3(C)C[C@@H]23)c2c(C)cc(-c3cnc(C)nc3)nc12 [Compound 210, (1R,3S,5R)-2-(2-(3-acetyl-7-methyl-5-(2-methylpyrimidin-5-yl)-1H-pyrazolo[4,3-b]pyridin-1-yl)acetyl)-N-(6-bromo-3-methylpyridin-2-yl)-5-methyl-2-azabicyclo[3.1.0]hexane-3-carboxamide]"
7,< 1,"Cc1ccc(Br)nc1NC(=O)[C@@H]1C[C@@]2(C)C[C@H]2N1C(=O)Cn1nc(C(N)=O)cc1-c1ccco1 [Compound 212, (1R,3S,5R)—N-(6-Bromo-3-methylpyridin-2-yl)-2-(2-(3-carbamoyl-5-(furan-2-yl)-1H-pyrazol-1-yl)acetyl)-5-methyl-2-azabicyclo[3.1.0]hexane-3-carboxamide]"
8,1 to 10,"Cc1ccc(Br)nc1NC(=O)[C@@H]1C[C@@]2(C)C[C@H]2N1C(=O)Cn1nc(-c2ccco2)cc1C(N)=O [Compound 213, (1R,3S,5R)—N-(6-Bromo-3-methylpyridin-2-yl)-2-(2-(5-carbamoyl-3-(furan-2-yl)-1H-pyrazol-1-yl)acetyl)-5-methyl-2-azabicyclo[3.1.0]hexane-3-carboxamide]"
9,< 1,"Cc1ccc(Br)nc1NC(=O)[C@@H]1C[C@@]2(C)C[C@H]2N1C(=O)Cn1nc(C(N)=O)cc1-c1cccs1 [Compound 214, (1R,3S,5R)—N-(6-Bromo-3-methylpyridin-2-yl)-2-(2-(3-carbamoyl-5-(thiophen-2-yl)-1H-pyrazol-1-yl)acetyl)-5-methyl-2-azabicyclo[3.1.0]hexane-3-carboxamide]"
10,> 10,"CC(=O)c1c2cc(-c3cnc(C)nc3)cc(C(F)(F)F)c2nn1CC(=O)N1[C@H](C(=O)Nc2nc(Br)ccc2C)C[C@@]2(C)C[C@@H]12 [Compound 217, (1R,3S,5R)-2-(2-(3-acetyl-5-(2-methylpyrimidin-5-yl)-7-(trifluoromethyl)-2H-indazol-2-yl)acetyl)-N-(6-bromo-3-methylpyridin-2-yl)-5-methyl-2-azabicyclo[3.1.0]hexane-3-carboxamide]"
11,< 1,"CC(=O)c1nn(CC(=O)N2[C@H](C(=O)Nc3nc(Br)ccc3C)C[C@@]3(C)C[C@@H]23)c2cnc(-c3cnc4cc(C)nn4c3)cc12 [Compound 219, (1R,3S,5R)-2-(2-(3-acetyl-5-(2-methylpyrazolo[1,5-a]pyrimidin-6-yl)-1H-pyrazolo[3,4-c]pyridin-1-yl)acetyl)-N-(6-bromo-3-methylpyridin-2-yl)-5-methyl-2-azabicyclo[3.1.0]hexane-3-carboxamide]"

# Same assay, conditions: Table 8; Factor D 80 nM, substrate Z-L-Lys-SBz; read-out: IC50
row,Compound,IC50 [µM]
1,"CC(=O)c1nn(CC(=O)N2[C@H](C(=O)Nc3nc(Br)ccc3C)C[C@@]3(C)C[C@@H]23)c2c(-c3nn[nH]n3)cc(-c3cnc(C)nc3)cc12 [Compound 236, (1R,3S,5R)-2-(2-(3-acetyl-5-(2-methylpyrimidin-5-yl)-7-(2H-tetrazol-5-yl)-1H-indazol-1-yl)acetyl)-N-(6-bromo-3-methylpyridin-2-yl)-5-methyl-2-azabicyclo[3.1.0]hexane-3-carboxamide]",< 1
